Target: Pin1 (murine embryonic fibroblasts) (Mus musculus, UniProt Q9QUR7)
Assay: EGCG-Sepharose pull-down from MEF lysates
Assay type: cell-based

Chain of Pin1 (murine embryonic fibroblasts) (Q9QUR7 whole entry): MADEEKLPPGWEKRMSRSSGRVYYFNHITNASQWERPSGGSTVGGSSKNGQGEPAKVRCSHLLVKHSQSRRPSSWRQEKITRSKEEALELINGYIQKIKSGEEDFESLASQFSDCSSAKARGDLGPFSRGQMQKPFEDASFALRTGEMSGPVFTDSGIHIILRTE

With `O=C(O[C@@H]1Cc2c(O)cc(O)cc2O[C@@H]1c1cc(O)c(O)c(O)c1)c1cc(O)c(O)c(O)c1` [EGCG, epigallocatechin-3-gallate] the Ki was 45 µM.
